Patent US9505841B2, “Use of an anti-Ang2 antibody” (Samsung Electronics Co., Ltd., priority 2013, dated 2016)
One block for each molecule: values may come before it.

Experiments:
[1] = system: LLC tumor; test: Co-administration of anti-Ang2 antibody and cisplatin in LLC lung cancer animal model; assay type: in vivo, mouse; conditions: LLC mice; antibody 10 mg/kg i.p. every three days, five times; cisplatin 3 mg/kg i.p. once; control Fc of IgG1
Description: The synergistic effect of co-treatment of antibody 10D6 and cisplatin was examined.
In particular, referring to Example 14, LLC tumor cells were subcutaneously injected into mice. When the size of tumors reached 50˜100 mm^3, anti-Ang2 antibody 10D6 was injected at the concentration of 10 mg/kg via an intraperitoneal injection every three days a total of five times. After administering antibody 10D6 twice, 3 mg/kg of cisplatin (Sigma-Aldrich) was intraperitoneally injected once. The size of tumor (V) was calculated using the following formula: Volume (V)=(width)2×length/2
For comparison, the same experiment was performed to a control group treated with Fc of IgG1 and a comparative group treated with antibody 4H10.
In addition, an experiment was performed to examine whether the synergistic effect obtained by co-administration of 10D6 and cisplatin as described above is due to the increased transporting efficiency of the administered cisplatin induced by the vascular normalization by treatment of 10D6. Cisplatin binds to DNA in a living body and induces crosslinking, thereby inducing cell death. Rat monoclonal anti-Cisplatin modified DNA (CP9/19) antibody (1:200, Abcam), which is capable of binding to DNA modified by cisplatin in tumor frozen sections, and hamster anti-CD31 antibody (1:200, Millipore), were used for immunofluorescence staining, and fluorescence images were obtained using LSM5 confocal microscope (Zeiss). In addition, to examine necrotic region, the tumor frozen sections were stained with H&E according to standard protocol, and then, Eosin+ cell region in tumor was observed. The obtained results are illustrated in FIG. 18C.

[2] = system: Tie2 receptor; test: Tie2, Akt and 42/44 phosphorylation in HUVEC: antibody 10D6 versus 10D6 Fab; assay type: cell-based, human; conditions: 60 nM 10D6 antibody or 10D6 Fab with 40 nM Ang2
Description: To see whether the activation of a Tie2 receptor is resulted from the dimerization of antibody 10D6, Fab fragments of antibody 10D6 were purified and then used for this experiment. The Fab fragments were obtained from antibody 10D6 using an Fab Preparation Kit (Pierce). As a digestion buffer, PBS containing 20 mM EDTA and 20 mM L-Cysteine was used, and the antibody was separated into Fab and Fc by the treatment with an immobilized papain at a room temperature for 2 hours. The Fc fragments were removed from the reaction solution using MabSelectSuRe column (GE Healthcare) to isolate and purify pure Fab fragments only.
HUVEC (ATCC) cells (1×10^6) were cultured in a 100 mm culture dish using EGM-2 (Lonza) media at 37° C. and when they reached 80˜90% confluency, the media were replaced with serum-free media (Lonza) and cultured at 37° C. for 6 to 16 hours. The dish was washed once with PBS and after the replacement with […] sodium orthovanadate (Sigma)-mixed serum free media (Lonza), they were further cultured for 10 min. After washed once with PBS, the cultured cells were treated with a mixture prepared by mixing 60 nM of 10D6 Ang2 antibody or 10D6 Fab with 40 nM of Ang2 protein (R&D systems) and letting them stand for 20 min. and further cultured for 10 min. […]

Molecule: N.N.[Cl][Pt][Cl] [cisplatin, reference compound]
tumor size decreased by, compared to the control [1]: 17.6%

phosphorylation of Tie2, Akt and 42/44 [2]: activation was not observed
B1: 10D6 Fab: Fab fragments of antibody 10D6 obtained by immobilized papain digestion and removal of Fc (antibody, V domains shown)
VH: DVQLQESGPGLVKPSQSLSLTCTVTGYSITSDYAWNWIRQFPGNKLEWMGYINYSGNTDYNPSLKSRSSITRDTSKNQFFLQLNSVTTGDTATYYCARGNFEGAMDYWGQGTSVTVSS
VL: SIVMTQTPKFLLVSAGDRVTITCKASQSVSNDVAWYQQKPGQSPKLLIYYASNRYPGVPDRFTGSGYGTDFTFTISTVQAEDLAVYFCQQDYSSPWTFGGGTKLEIK
